This note sets out measurements from US6211151A, “Peptides with organo-protective activity, a process for preparation thereof and their use in therapy” (priority 1992, dated 2001).

Data set [1] relates to female mice. The data set can be described thus: Acute toxicity. The format is in vivo. The following applies: 8, 25 and 50 μg/kg b.w., i.v.; observed 15 days. The procedure:
Acute toxicity of synthetic peptides was determined in female mice (weight ca. 20 g). Groups of 6 animals were used for each experiment and control.
Peptides Seq.Id.No: 2,3,4 and 6 were applied in a dosage of 8, 25 and 50 μg/kg b.w., i.v. Control group was treated with saline (0.9%, 5.0 ml/kg b.w.).

In data set [2] the test system is NMRI-Hannover female mice. The data set can be described thus: Influence on vitamin A induced malformation. The class given is in vivo. The following applies: peptide alone, 10 μg or 10 ng/kg b.w., i.p., tenth day of pregnancy. As for the experimental part: 12. Influence on induced malformation
NMRI-Hannover female mice, two months old, 25 g b.w., but not previously exposed to copulation were used in all experiments. The female mice in the estrus phase were mated overnight with well experienced healthy male mice. The mice were sacrified after 20 days of pregnancy.
Vitamin A was applied in a dose of 15700 U/kg b.w., i.m., at tenth day of the pregnancy (0.05 ml/kg b.w.). Peptide Seq.Id.No: 4 was given simultaneously in a dosage of 10 μg or 10 ng/kg b.w.,i.p.
Control: saline 5.0 ml/kg b.w., i.p.
Animals non treated with vitamin A receiving at the same time i.p. saline or peptide 4 in the same dosage served as healthy control.

Data set [3] relates to Wistar male rats. The data set is described as follows: Turpentine induced buccal edemas. The format is in vivo, rat. To be noted: 10 μg/kg b.w., i.p. and i.g., 1 hour before turpentine; measured 24 hours after induction. As for the experimental part: 3. Turpentine induced buccal edemas
Wistar male rats (180-240 g), N=10 in each group. Turpentine was given intramucosally 0.02 ml/rat. Control: 0.9% saline intramucosally (0.02 ml/rat, 2×). Peptides Seq. Id. No: 2 and 4 were applied in a dose of 10 μg and 10 ng/kg, i.p. and i.g., 1 hour before turpentine. Buccal edemas were measured 24 hours after edema induction. Statistical analysis: Mann-Whitney test. The investigated peptides were effective in a dosage of 10 μg/kg b.w.

The test system of data set [4] is Albino Wistar (male) rats. The data set can be described thus: Gastric ulcer induced by restraint stress. To be noted: 10 μg or 10 ng/kg b.w., i.p. or i.g., 1 hour before 48 hours immobilization; even at 10 ng/kg. The class given is in vivo, rat. As for the experimental part:
1.) Gastric ulcer induced by restraint stress
Albino Wistar (male) rats (180-200 g), were used in the experiments. All the animals were immobilized in a supine position for 48 hours at room temperature. Immediately thereafter they were sacrified and the lesions measured. The peptides Seq. Id. No: 4, 6 and 2 were applied in dosage of 10 μg or 10 ng/kg b.w., i.p. or i.g. 1 hour before noxious procedure.

No end group written: not given here.

LEPPPLKPADALGV [Seq. Id. No: 4]: the “signs of toxicity or death” value in data set [1] is reported as “no signs of toxicity or death”. Also, in data set [2], the “malformation in animals not treated with vitamin A” value is “No malformation”.

As to “Seq. Id. No: 2: synthetic peptide of 8 to 15 amino acid residues with BPC-type activity; sequence not printed in this text (GEPPPGKPADDAGLV)”, in data set [3], the “effect on buccal edemas” value is given as “effective”. For the same substance, the “signs of toxicity or death” value in data set [1] is listed as “no signs of toxicity or death”. Further, the “protection against restraint stress gastric lesions” value in data set [4] is recorded as “strongly protective”.

Turning to LEPPPLKPADDALGV [Seq.Id.No: 3], in data set [1], the “signs of toxicity or death” value was “no signs of toxicity or death”.

With EPPPLKPA [Seq. Id. No: 6], the “signs of toxicity or death” value in data set [1] is on record as “no signs of toxicity or death”.
